The values that follow come from US10709692B2, “Isoxazolidine derived inhibitors of receptor interacting protein kinase 1 (RIPK1)” (Denali Therapeutics Inc., priority 2015, dated 2020).

SMILES strings stand for the structures. “And” between values parts separate entries of the source, which are not always exact repeats. Equal values may be shown once.

This assay deals with T1, receptor interacting protein kinase 1 (GST-hRIPK1 (8-327)) (Homo sapiens, UniProt Q13546).
T1 construct: GST-hRIPK1 (8-327) enzyme was generated by Proteros GmbH by Baculovirus expression system
T1 sequence (Q13546 8-327): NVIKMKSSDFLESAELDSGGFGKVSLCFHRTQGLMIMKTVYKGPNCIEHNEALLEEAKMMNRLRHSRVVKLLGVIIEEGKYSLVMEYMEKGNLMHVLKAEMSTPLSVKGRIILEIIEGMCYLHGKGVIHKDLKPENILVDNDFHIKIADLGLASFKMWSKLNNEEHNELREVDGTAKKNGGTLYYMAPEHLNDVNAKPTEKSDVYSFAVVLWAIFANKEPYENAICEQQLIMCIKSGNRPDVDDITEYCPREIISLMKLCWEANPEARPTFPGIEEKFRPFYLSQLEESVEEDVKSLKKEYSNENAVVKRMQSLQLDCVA
The assay can be described thus: Fluorescent Polarization Binding (FP Binding) assay. Conditions: 10 nM GST-hRIPK1 (8-327), 5 nM fluorescent-labeled ligand, 30 min at RT. On the procedure: Fluorescent Polarization Binding (FP Binding) assay (Berger S. B. et al. (2015) Cell Death Discovery, 1: 15009; Maki J. L. et al. (2012) Anal Biochem., 427(2): 164-174) was performed in polystyrene low volume 384-well black plate, at Room Temperature (RT) in a final volume of 10.1 μl/well using 10 nM of GST-hRIPK1 (8-327) enzyme and 5 nM of fluorescent-labeled ligand (14-(2-{[3-({2-{[4-(cyanomethyl)phenyl]amino}-6-[(5-cyclopropyl-1H-pyrazol-3-yl)amino]-4-pyrimidinyl}amino) propyl]amino}-2-oxoethyl)-16,16,18,18-tetramethyl-6,7,7a,8a,9,10,16,18-octahydrobenzo[2″3″]indolizino[8″, 0.7″:5′,6′]pyrano[3′,2′:3,4]pyrido[1,2-a]indol-5-ium-2-sulfonate.
Test compounds were serially diluted in DMSO at 100 fold final concentrations in the assay (1% DMSO final). In each well of a 384-well Plate were dispensed 0.1 μL of compound solution (or DMSO for controls) followed by 5 μL of GST-hRIPK1 (8-327) at twice the final concentrations in assay-buffer (50 mM HEPES pH 7.5, 10 mM NaCl, 50 mM MgCl2, 0.02% CHAPS, 0.5 mM DTT and 0.01% Pluronic F127). For negative control the enzyme addition was replaced by assay buffer only.
After addition of 5 μL of fluorescent-labeled ligand at twice the final concentrations in assay buffer, the plate was incubated at RT for 30 min. At the end, the binding was measured as FP value with the Envision (PerkinElmer) plate reader using filter for an excitation λ=531 nm FP and an emission λ=595 nm FP (S & P-pol).
Test compound inhibition was expressed as percent inhibition of internal assay controls. For concentration response curves, normalized data is fit and IC50 determined using XL-fit (IDBS) for Excel. IC50 were averaged to determine a mean value, for a minimum of two independent experiments.
Receptor interacting protein kinase 1 activity of exemplary compounds was determined according to the above general procedures.
Receptor interacting protein kinase 1 activity of certain compounds was determined according to the above general procedures.
Broadly, the IC50 is the concentration that inhibits the measured activity by half. Low values mean higher potency, high ones lower potency. `CC(C)(C)C(=O)N1OCC[C@H]1c1ccc(F)cc1F` [Compound 135, 1-[(3S)-3-(2,4-difluorophenyl)-1,2-oxazolidin-2-yl]-2,2-dimethylpropan-1-one] yielded an IC50 below 1 µM.
`CC1(C(=O)N2OCC[C@H]2c2ccc(F)cc2)CCCO1` (single isomer, unassigned) [Compound 137] gave a concentration for half-maximal inhibition (IC50) of 1 to 10 µM.
For `O=C(C1CC1(F)F)N1OCC[C@H]1c1ccc(F)cc1` (single isomer, unassigned) [Compound 237] the value was below 1 µM.
Take `CC1(C(=O)N2OCC[C@H]2c2ccc(F)cc2)CCCO1` (single isomer, unassigned) [Compound 136]: the IC50 was in the range of 1 to 10 µM.
Turning to `Cc1ccc([C@@H]2CCON2C(=O)C(C)(C)C(F)F)cn1` [Compound 202, 3,3-difluoro-2,2-dimethyl-1-[(3S)-3-(6-methylpyridin-3-yl)-1,2-oxazolidin-2-yl]propan-1-one], the IC50 is below 1 µM.
For `Cc1cnc([C@@H]2CCON2C(=O)C(C)C(F)(F)F)cn1` (single isomer, unassigned) [Compound 130] the value was below 1 µM; for `CC(C)(C)C(=O)N1OCC[C@@H]1c1ccc(Cl)cc1` [Compound 48, 1-[(3R)-3-(4-Chlorophenyl)-1,2-oxazolidin-2-yl]-2,2-dimethylpropan-1-one], above 10 µM.
In turn, `CC(C)(C)C(=O)N1OCC[C@@H]1c1cc(F)cc(F)c1` (single isomer, unassigned) [Compound 102] returned an IC50 below 1 µM.
For `Cn1c(C#N)ccc1C(=O)N1OCC[C@H]1c1ccc(F)cc1` [Compound 60, 5-[(3S)-3-(4-fluorophenyl)-1,2-oxazolidine-2-carbonyl]-1-methyl-1H-pyrrole-2-carbonitrile] the value was below 1 µM; for `CC(C(=O)N1OCC[C@H]1c1ccc(C#N)cc1)C1CC1` (single isomer, unassigned) [Compound 214], below 1 µM.
Consider `CC(C)(C)C(=O)N1OCC[C@H]1c1ccc(F)cn1` [Compound 127, 1-[(3S)-3-(5-fluoropyridin-2-yl)-1,2-oxazolidin-2-yl]-2,2-dimethylpropan-1-one], for which the IC50 is below 1 µM.
For `CC(C)(CC#N)C(=O)N1OCC[C@H]1c1ccc(C(F)F)nc1` [Compound 131, 4-(3S)-3-[6-(difluoromethyl)pyridin-3-yl]-1,2-oxazolidin-2-yl-3,3-dimethyl-4-oxobutanenitrile] the value was below 1 µM.
As to `O=C(N1OCC[C@H]1c1ccc(F)cc1)C1(C(F)(F)F)CCCC1` [Compound 29, (3S)-3-(4-fluorophenyl)-2-[1-(trifluoromethyl)cyclo-pentanecarbonyl]-1,2-oxazolidine], the IC50 is below 1 µM.
For `C[C@H]1C[C@@H](c2ccc(C#N)cc2)N(C(=O)C(C)(C)C)O1` (single isomer, unassigned) [Compound 99] the value was below 1 µM; for `CC(C)(C(=O)N1OCC[C@H]1c1ccc(C#N)s1)C(F)F` [Compound 204, 5-[(3S)-2-(3,3-difluoro-2,2-dimethylpropanoyl)-1,2-oxazolidin-3-yl]thiophene-2-carbonitrile], below 1 µM.
As to `CC(C)(C)C(=O)N1OCC[C@H]1c1ccc(F)nc1` (single isomer, unassigned) [Compound 61], the IC50 is < 1 µM and 0.028 µM.
For `N#CC1(C(=O)N2OCC[C@H]2c2ccc(F)cc2)CC2(COC2)C1` [Compound 172, 6-[(3S)-3-(4-fluorophenyl)-1,2-oxazolidine-2-carbonyl]-2-oxaspiro[3.3]heptane-6-carbonitrile] the value was below 1 µM.
As to `CC(C(=O)N1OCC[C@H]1c1ccc(F)nc1)C(F)(F)F` (single isomer, unassigned) [Compound 162], the IC50 was below 1 µM.
Regarding `CC(C)(C(=O)N1OCC[C@H]1c1ccc(C(F)F)nc1)C(F)F` [Compound 221, 1-[(3S)-3-[6-(difluoromethyl)pyridin-3-yl]-1,2-oxazolidin-2-yl]-3,3-difluoro-2,2-dimethylpropan-1-one], the IC50 was < 1 µM and 0.07 µM.
For `CC(C)(Cn1cccn1)C(=O)N1OCC[C@H]1c1ccc(F)cc1` [Compound 178, 1-[(3S)-3-(4-fluorophenyl)-1,2-oxazolidin-2-yl]-2,2-dimethyl-3-(1H-pyrazol-1-yl)propan-1-one] the value was below 1 µM; for `CC1CC1C(=O)N1OCC[C@H]1c1ccc(C#N)cc1` (single isomer, unassigned) [Compound 216], 1 to 10 µM.
`CC(C)(C)C(=O)N1OCC[C@@H]1c1cccnc1F` [Compound 63, 1-[(3R)-3-(2-Fluoropyridin-3-yl)-1,2-oxazolidin-2-yl]-2,2-dimethylpropan-1-one] came in with an IC50 of 1 to 10 µM.
Consider `Cc1ncc([C@@H]2CCON2C(=O)C(C)(C)CC#N)cc1F` [Compound 196, 4-[(3S)-3-(5-fluoro-6-methylpyridin-3-yl)-1,2-oxazolidin-2-yl]-3,3-dimethyl-4-oxobutanenitrile], for which the IC50 is < 1 µM and 0.009 µM.
For `CC(C)(COC(F)(F)F)C(=O)N1OCC[C@H]1c1cncc(F)c1` [Compound 139, 1-[(3S)-3-(5-fluoropyridin-3-yl)-1,2-oxazolidin-2-yl]-2,2-dimethyl-3-(trifluoromethoxy)propan-1-one] the value was below 1 µM; for `CC(C)(F)C(=O)N1OCC[C@H]1c1ccccc1` [Compound 56, 2-Fluoro-2-methyl-1-[(3S)-3-phenyl-1,2-oxazolidin-2-yl]propan-1-one], below 1 µM.
The compound `Cc1ncc([C@@H]2CCON2C(=O)C(C)(C)C(F)F)cc1C#N` [Compound 220, 5-[(3S)-2-(3,3-difluoro-2,2-dimethylpropanoyl)-1,2-oxazolidin-3-yl]-2-methylpyridine-3-carbonitrile] came in with an IC50 below 1 µM.
The compound `CC(C)(C)C(=O)N1OCC[C@@H]1c1cccc(F)c1` [Compound 82, (R)-1-(3-(3-fluorophenyl)isoxazolidin-2-yl)-2,2-dimethylpropan-1-one] gave an IC50 of 1 to 10 µM.
For `CC(C)(CO)C(=O)N1OCC[C@H]1c1ccc(F)cc1` [Compound 96, 1-[(3S)-3-(4-fluorophenyl)-1,2-oxazolidin-2-yl]-3-hydroxy-2,2-dimethylpropan-1-one] the value was below 1 µM; for `CC(C)(C(=O)N1OCC[C@@H]1c1ccc(C#N)s1)C(F)F` [Compound 203, 5-[(3R)-2-(3,3-difluoro-2,2-dimethylpropanoyl)-1,2-oxazolidin-3-yl]thiophene-2-carbonitrile], below 1 µM.
In the case of `CC(C)(CC#N)C(=O)N1OCC[C@H]1c1ccc(C(F)F)c(C#N)c1` [Compound 228, 5-[(3S)-2-(3-cyano-2,2-dimethylpropanoyl)-1,2-oxazolidin-3-yl]-2-(difluoromethyl)benzonitrile], the IC50 is below 1 µM.
For `CC1(C(=O)N2OCC[C@H]2c2ccc(F)c(F)c2)CCOC1` (single isomer, unassigned) [Compound 212] the value was below 1 µM; for `O=C(C1CC1(F)F)N1OCC[C@H]1c1ccc(F)cc1` (single isomer, unassigned) [Compound 236], below 1 µM; for `CC(C)(C)C(=O)N1OCC[C@H]1c1cncc(F)c1` [Compound 133, 1-[(3S)-3-(5-fluoropyridin-3-yl)-1,2-oxazolidin-2-yl]-2,2-dimethylpropan-1-one], below 1 µM.
For `CC(CC(F)F)C(=O)N1OCC[C@H]1c1ccc(C#N)cc1` (single isomer, unassigned) [Compound 233] the value was below 1 µM.
